Counter-ions that a name gives are not always drawn. Like-named read-outs stand apart in the source and are kept apart here.
Columns and labels:
[1] = target: T1, HIV-1 proteinase (HIV-1 PR) (Human immunodeficiency virus type 1 group M subtype B, UniProt P04585); assay: Screening for in vitro activity against HIV-1 proteinase; format: biochemical; conditions: for inhibition at 10 µg/mL / inhibition at 0.08 µg/mL / inhibition at 2 µg/mL / inhibition at 0.4 µg/mL: read-out: Inhibition rate; for inhibition at 50 µg/mL: read-out: Inhibition rate, 50 μg/ml
T1 construct: HIV-1 proteinase digests the fluorescent-labeled substrate; purchased
How it was run: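 Recombinant HIV-1 PR cleaves a fluorescent-labeled substrate in reaction buffer. Samples were dissolved in DMSO and serially diluted 5-fold in water (five dilutions), then added before the enzyme. Fluorescence of the product was read after incubation; indinavir was the positive control.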

[2] = test system: A-549 human lung adenocarcinoma; assay: In vitro inhibition rate to tumor cells (MTT), A-549; format: cell-based; conditions: for inhibition rate, Results (%) A-549: 50 μg/ml; for inhibition at 50 µg/mL: Homo sapiens
[3] = test system: MDCK (dog kidney) cells; assay: Toxicity TC50 of the samples in MDCK cells (influenza screening); conditions: concentration of 50% toxicity
[4] = test system: mouse grafted liver cancer H22; assay: Activity against mouse grafted liver cancer H22; format: in vivo, Kunming mice; conditions: for Tumor weight: X ± SD, n = 10; for Average weight (g)-after administration / Average weight(g)-after administration: mouse, in vivo
Experimental: (§1) The experiments were performed according to “Guideline for New Drugs (Western medicines) in Pre-clinical Stages” issued by Bureau of Drug Policy & Administration of the People's Republic of China, and the relevant methods in “Methodology of Pharmaceutical Experiments”, Xu Shuyun et al. ed. 120 male Kunming mice weighting […] were allowed to grow 3 days. No abnormality was observed. The mice were routinely inoculated in oxter with mouse sarcoma S-180, and weighted 4 hrs. after inoculation. The mice were randomly divided into 12 groups, 10 mice/group. Group 1 was given 0.3 ml of physiological saline as negative control; Group 2 was given 5-FU as positive control, 0.6 mg/mouse; Group 3 was given hydroxycamptothecine as positive control, 0.02 mg/mouse. Groups 4, 5 and 6 were injected with 10% Compound 6, 0.4 ml/mouse, 0.2 ml/mouse, and 0.1 ml/mouse, respectively. Groups 7, 8 and 9 were injected with 10% Compound 8, 0.4 ml/mouse, 0.2 ml/mouse, and 0.1 ml/mouse, respectively. Groups 10, 11, and 12 were injected with 10% Compound 20, 0.4 ml/mouse, 0.2 ml/mouse, and 0.1 ml/mouse, respectively. The tested compounds were administered on the next day after inoculation, once a day on alternate days, 6 doses totally administered. On the next day after the end dose, the mice were weighed and sacrificed. After the tumor was excised, body weight and tumor weight were recorded. The tumor inhibition rate was calculated based on the following formula: [(average tumor weight of the control groups−average tumor weight of the experimental groups)/average tumor weight of the control groups]×100%. The data was processed statistically. The above experiments were repeated three times.
The experiments were identical with the experiments for activity against mouse grafted sarcoma S-180, except that the cell line inoculated was liver cancer H22. The experiments were repeated three times.

[5] = test system: mouse grafted sarcoma S-180; assay: Activity against mouse grafted sarcoma S-180; format: in vivo, Kunming mice; conditions: for Inhibition rate (%) / Tumor weight: 6 doses; for Tumor weight: X ± SD, n = 10; for Average weight (g)-after administration / Average weight(g)-after administration: mouse, in vivo, iv
Experimental: (1) Experimental animals: Kunming mice weighting 18-22 g;
(2) 100 mg/ml solutions of the 3 compounds were prepared, respectively, in water for injection (1% surface surfactant was added into the solution of Compound 6). 5-FU and camptothecine, 30 mg/kg and 1 mg/kg, respectively, were used as positive controls;
3. Route of Administration: Intravenous Injection.
as §1

[6] = test system: Hepatitis B virus (HBV); format: cell-based; conditions: 200 μg/ml; for (Value of the positive control - Measured Value) Value of the positive control × 100%: decrease of HBeAg relative to positive control; for OD450 of HBeAg: supernatant four days after infection, positive control 1.917, negative 0.057
[7] = test system: HepG2 cells; assay: Cell status of HepG2 cells treated with sample (HBV screening); format: cell-based; conditions: 200 μg/ml, HepG2, four days after infection
[8] = A549, 50 μg/ml, Table 2 (repeated screening), read-out: inhibition rate, Results (%) A-549
[9] = IC50, five 5× serial dilutions from 50 μg/ml
[10] = A549, 50 μg/ml, Table 1, read-out: inhibition rate, Results (%) A-549
[11] = A549, 50 μg/ml, Table 3 (repeated screening), read-out: inhibition rate, Results (%) A-549
[12] = H22, first experiment, 20 mg/kg i.v., 6 doses
[13] = H22, first experiment, 40 mg/kg i.v., 6 doses
[14] = H22, second experiment, 20 mg/kg
[15] = H22, second experiment, 40 mg/kg
[16] = H22, third experiment, 10 mg/kg
[17] = H22, third experiment, 20 mg/kg
[18] = H22, third experiment, 40 mg/kg
[19] = three different concentrations (40, 20, 10 mg/kg), i.v.
[20] = S-180, first experiment, 10 mg/kg i.v.
[21] = S-180, first experiment, 20 mg/kg i.v.
[22] = S-180, first experiment, 40 mg/kg i.v.
[23] = S-180, second experiment, 10 mg/kg i.v.
[24] = S-180, second experiment, 20 mg/kg i.v.
[25] = S-180, second experiment, 40 mg/kg i.v.

CC(C)C1CC23OC1(O)C/C(=C\Nc1ccc(O)cc1)C2CCC3C (stereo not drawn) [Compound 5, Curcumol p-hydroxy aniline]
Inhibition rate ([1]; 0.08 μg/ml): 4.38 | Inhibition rate ([1]; 0.40 μg/ml): 9.00 | Inhibition rate ([1]; 2.0 μg/ml): 10.30 | inhibition at 10 µg/mL ([1]; 10 μg/ml): 11.2% | Inhibition rate ([1]; 50 μg/ml): 1.01 | IC50 ([1]; five 5× serial dilutions from 50 μg/ml, read-out: IC50): > 146 µM | inhibition rate, Results (%) A-549 ([2]; Table 3 (repeated screening)): 91.23% | inhibition at 50 µg/mL [2, 8]: 90% | inhibition at 50 µg/mL ([2]; A549, read-out: inhibition rate, Results (%) A-549, 50 μg/ml, Table 1): 90.3%

CC(C)C1CC23OC1(O)CC(=CN1CCNCC1)C2CCC3C (stereo not drawn) [Compound 7, Curcumol piperazine]
inhibition at 0.08 µg/mL ([1]; 0.08 μg/ml): 14.1% | Inhibition rate ([1]; 0.40 μg/ml): 6.32 | inhibition at 2 µg/mL ([1]; 2.0 μg/ml): 4.31% | Inhibition rate ([1]; 10 μg/ml): 3.51 | IC50 [1, 9]: > 156 µM | inhibition at 50 µg/mL [1]: 1.43% | inhibition at 50 µg/mL [2, 10]: 65.3% | inhibition at 50 µg/mL [2, 8]: 67.2% | inhibition at 50 µg/mL [2, 11]: 65.3%

CC(C)C1CC23OC1(O)CC(=CN1CCNCC1)C2CCC3C (stereo not drawn) [Compound 8, Curcumol piperazine hydrochloride]
TC50 [3]: 192.45 µg/mL | Tumor weight ([4]; H22, first experiment, 10 mg/kg i.v., 6 doses): 3.02 ± 0.33 g | Inhibition rate (%) [4, 12]: 4.0% | Tumor weight [4, 12]: 2.9 ± 0.39 g | Inhibition rate (%) [4, 13]: 37.1% | Tumor weight [4, 13]: 1.9 ± 0.36 g | Tumor weight ([4]; H22, second experiment, 10 mg/kg): 3.10 ± 0.33 g | Inhibition rate (%) [4, 14]: 4.0% | Tumor weight [4, 14]: 2.9 ± 0.39 g | Inhibition rate (%) [4, 15]: 36.1% | Tumor weight [4, 15]: 1.93 ± 0.36 g | Inhibition rate (%) [4, 16]: 2.3% | Tumor weight [4, 16]: 2.95 ± 0.33 g | Inhibition rate (%) [4, 17]: 7.3% | Tumor weight [4, 17]: 2.8 ± 0.39 g | Inhibition rate (%) [4, 18]: 33.4% | Tumor weight [4, 18]: 2.01 ± 0.36 g | Average weight (g)-after administration ([4]; 10 mg/kg): 20.3 g | Average weight(g)-after administration ([4]; 10 mg/kg): 22.3 g | Average weight (g)-after administration ([4]; 20 mg/kg): 20.9 g | Average weight(g)-after administration ([4]; 20 mg/kg): 21.9 g | Average weight (g)-after administration ([4]; 40 mg/kg): 21.9 g | Average weight(g)-after administration ([4]; 40 mg/kg): 21.4 g | Average weight(g)-after administration ([4]; iv, 10 mg/kg): 22.3 g | Average weight(g)-after administration ([4]; iv, 20 mg/kg): 21.9 g | Average weight(g)-after administration ([4]; iv, 40 mg/kg): 22.4 g | inhibitory effect against mouse grafted liver cancer H22 (in words) [4, 19]: some inhibitory effect only when the concentration reached 40 mg/kg | Inhibition rate (%) [5, 20]: 16% | Tumor weight [5, 20]: 2.1 ± 0.42 g | Inhibition rate (%) [5, 21]: 20% | Tumor weight [5, 21]: 2.0 ± 0.40 g | Inhibition rate (%) [5, 22]: 48% | Tumor weight [5, 22]: 1.3 ± 0.24 g | Inhibition rate (%) [5, 23]: 15.4% | Tumor weight [5, 23]: 2.2 ± 0.31 g | Inhibition rate (%) [5, 24]: 15.4% | Tumor weight [5, 24]: 2.2 ± 0.29 g | Inhibition rate (%) [5, 25]: 46.1% | Tumor weight [5, 25]: 1.4 ± 0.37 g | Average weight (g)-after administration ([5]; 10 mg/kg): 22.5 g | Average weight(g)-after administration ([5]; 10 mg/kg): 23.5 g | Average weight (g)-after administration ([5]; 20 mg/kg): 21.8 g | Average weight(g)-after administration ([5]; 20 mg/kg): 21.8 g | Average weight (g)-after administration ([5]; 40 mg/kg): 23.0 g | Average weight(g)-after administration ([5]; 40 mg/kg): 23.0 g | inhibitory effect against mouse sarcoma S-180 (in words) [5, 19]: had the inhibitory effect only when the concentration reached 40 mg/kg | inhibition at 0.08 µg/mL ([1]; 0.08 μg/ml): 9.74% | inhibition at 0.4 µg/mL ([1]; 0.40 μg/ml): 2.64% | inhibition at 2 µg/mL ([1]; 2.0 μg/ml): 5.27% | inhibition at 10 µg/mL ([1]; 10 μg/ml): 0.62% | IC50 [1, 9]: > 156 µM | inhibition at 50 µg/mL [1]: 1.4% | inhibition at 50 µg/mL [2, 10]: 60.5% | inhibition at 50 µg/mL [2, 8]: 58.6% | inhibition at 50 µg/mL [2, 11]: 55.9%

CC(C)C1CC23OC1(O)CC(=CBr)C2CCC3C (stereo not drawn) [Compound 17, Curcumol monobromide]
(Value of the positive control - Measured Value) Value of the positive control × 100% [6]: 96.19% | OD450 of HBeAg [6]: 0.073 | inhibition at 0.08 µg/mL ([1]; 0.08 μg/ml): 3.78% | inhibition at 0.4 µg/mL ([1]; 0.40 μg/ml): 10.7% | inhibition at 2 µg/mL ([1]; 2.0 μg/ml): -6% | inhibition at 10 µg/mL ([1]; 10 μg/ml): 6.15% | IC50 [1, 9]: > 159 µM | inhibition at 50 µg/mL [1]: 9.94% | Cell status [7]: Poor | inhibition at 50 µg/mL [2, 10]: 4.68% | inhibition at 50 µg/mL [2, 8]: 5.23%

C=C1CC2(OS(=O)(=O)O)OC3(CC2C(C)C)C(C)CCC13 (stereo not drawn) [Compound 20, Curcumol sulfonate]
(Value of the positive control - Measured Value) Value of the positive control × 100% [6]: −14.8148% | OD450 of HBeAg [6]: 2.201 | inhibition at 0.08 µg/mL ([1]; 0.08 μg/ml): 8.76% | inhibition at 0.4 µg/mL ([1]; 0.40 μg/ml): 7.44% | inhibition at 2 µg/mL ([1]; 2.0 μg/ml): 10.6% | inhibition at 10 µg/mL ([1]; 10 μg/ml): 9.46% | Inhibition rate ([1]; 50 μg/ml): 12.68 | IC50 [1, 9]: > 158 µM | Cell status [7]: Normal | inhibition rate, Results (%) A-549 ([2]; Table 1): 12.50% | inhibition rate, Results (%) A-549 ([2]; Table 3 (repeated screening)): 14.32% | inhibition at 50 µg/mL [2, 8]: 13%
